Experiment [1] has as its target human FPR2 (Homo sapiens (Human), UniProt P25090). Nature of the experiment: FPR2 cyclic adenosine monophosphate (cAMP) assay. Type of experiment: cell-based. The note with it: CHO cells overexpressing human FPR2; forskolin 5 µM; inhibition of cAMP production; read-out: hFPR2 cAMP2 EC50. The method in brief: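 CHO cells overexpressing human FPR2 (2,000/well) incubated 30 min at room temperature with compound (0.020 nM–100 µM, 1% DMSO), 5 µM forskolin and 200 µM IBMX.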
In general terms: Changes in cAMP serve as a functional read-out for many G protein-coupled receptors.

Experiment [2] deals with human FPR1 (Homo sapiens (Human), UniProt P21462). The experiment in a line: FPR1 cyclic adenosine monophosphate (cAMP) assay. The note with it: CHO cells overexpressing human FPR1; forskolin 10 µM; inhibition of cAMP production; read-out: hFPR1 cAMP EC50. Type of experiment: cell-based. An outline of the steps:
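CHO cells overexpressing human FPR1 (4,000 cells/well) stimulated with 10 µM forskolin plus 200 µM IBMX in the presence of compound (0.020 nM–100 µM, 1% DMSO), 30 min at room temperature. Intracellular cAMP measured by HTRF. Inhibition of cAMP production fitted to a 4-parameter logistic equation.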

As a reminder, the EC50 is the concentration at which the effect is half-maximal.

Sequence of human FPR2 (P25090 whole entry): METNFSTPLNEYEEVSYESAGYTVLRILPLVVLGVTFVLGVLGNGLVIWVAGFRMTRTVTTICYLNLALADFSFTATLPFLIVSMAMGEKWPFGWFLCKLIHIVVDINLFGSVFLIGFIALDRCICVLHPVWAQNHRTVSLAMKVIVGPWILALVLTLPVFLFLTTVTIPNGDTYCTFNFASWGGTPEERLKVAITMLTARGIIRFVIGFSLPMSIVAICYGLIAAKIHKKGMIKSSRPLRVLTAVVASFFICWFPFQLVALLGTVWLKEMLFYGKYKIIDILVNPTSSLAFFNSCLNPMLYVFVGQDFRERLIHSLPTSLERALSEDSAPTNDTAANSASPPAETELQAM
Sequence of human FPR1 (P21462 whole entry): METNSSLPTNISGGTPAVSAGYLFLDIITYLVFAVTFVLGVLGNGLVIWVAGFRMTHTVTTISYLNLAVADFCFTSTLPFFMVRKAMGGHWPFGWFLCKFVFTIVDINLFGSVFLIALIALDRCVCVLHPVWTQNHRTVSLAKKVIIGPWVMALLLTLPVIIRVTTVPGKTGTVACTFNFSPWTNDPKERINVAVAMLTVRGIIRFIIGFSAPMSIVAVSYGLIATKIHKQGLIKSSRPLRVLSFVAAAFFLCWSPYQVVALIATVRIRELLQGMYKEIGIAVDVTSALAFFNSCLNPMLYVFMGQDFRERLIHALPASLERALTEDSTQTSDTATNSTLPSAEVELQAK

Turning to `COc1cc(F)c([C@@H]2CN(c3cc(C)cc(N4C[C@@H]5C[C@H]4CN5C)n3)C(=O)[C@H]2NC(=O)c2ccc(OC(F)(F)F)cc2)c(F)c1` [Example 571], the EC50 in experiment [1] was found to be 6 nM; in experiment [2] it was 580 nM.

On to `COc1cc(F)c([C@@H]2CN(c3ccc(F)c(N4C[C@@H]5C[C@H]4CN5C)n3)C(=O)[C@H]2NC(=O)c2ccc(OC(F)(F)F)cc2)c(F)c1` [Example 572], for which the EC50 is 3.5 nM in experiment [1] and 1600 nM in experiment [2].

Turning to `COc1cc(F)c([C@H]2[C@H](NC(=O)c3ccc(OC(F)F)cc3)C(=O)N(c3cccc(N4CCOCC4)n3)[C@H]2C)c(F)c1` [Example 574], the EC50 in experiment [1] is 15 nM; in experiment [2], 550 nM.

With `COc1cc(C2CC2)nc(N2C(=O)[C@@H](NC(=O)c3ccc(OC(F)(F)F)cc3)[C@H](c3c(F)cc(OC)cc3F)[C@@H]2C)c1` [Example 575], the figures for the EC50 in experiment [1] and in experiment [2] were 480 nM and more than 5000 nM, respectively.

As for `COc1cc(F)c([C@@H]2CN(c3c(C)ccn(CCS(C)(=O)=O)c3=O)C(=O)[C@H]2NC(=O)c2ccc(OC(F)(F)F)cc2)c(F)c1` [Example 576], the results for the 50% effective concentration (EC50) in experiment [1] and in experiment [2] were 1.4 nM and 1.5 nM, respectively.

Turning to `COc1ccc([C@@H]2CN(c3c(C)ccn(C4CCC4)c3=O)C(=O)[C@H]2NC(=O)c2ccc(OC(F)F)cc2)cc1` [Example 577], the EC50 in experiment [1] is 0.6 nM; in experiment [2] it was 0.2 nM.

In the case of `COc1ccc([C@@H]2CN(c3c(C)ccn(C4COC4)c3=O)C(=O)[C@H]2NC(=O)c2ccc(OC(F)(F)F)cc2)cc1` [Example 578], the values for the EC50 in experiment [1] and in experiment [2] were 1.5 nM and 6 nM, respectively.

As to `COc1cc(F)c([C@@H]2CN(c3c(C)ccn(Cc4cc(C)no4)c3=O)C(=O)[C@H]2NC(=O)c2ccc(OC(F)F)cc2)c(F)c1` [Example 579], the EC50 in experiment [1] was 5.8 nM; in experiment [2], 5.5 nM.

Regarding `COc1cc(F)c([C@@H]2CN(c3cccc(N4CCOCC4)n3)C(=O)[C@H]2NC(=O)c2ccc(OC(F)F)cc2)c(F)c1` [Example 580], the figures for the EC50 in experiment [1] and in experiment [2] were 3.6 nM and 740 nM, respectively.

On to `COc1cc(F)c([C@@H]2CN(c3c(C)ccn(CC(C)O)c3=O)C(=O)[C@H]2NC(=O)c2ccc(Cl)cc2)c(F)c1` (some centres unmarked) [Example 581], for which the concentration for a half-maximal effect (EC50) in experiment [1] was found to be 1.3 nM; in experiment [2], 10 nM.

Take `COc1cc(F)c([C@@H]2CN(c3cccn(C(CO)C(F)(F)F)c3=O)C(=O)[C@H]2NC(=O)c2ccc(OC(F)F)cc2)c(F)c1` (some centres unmarked) [Example 582]: the results for the EC50 in experiment [1] and in experiment [2] were 4.7 nM and 550 nM, respectively.

For the compound `COc1cc(F)c([C@@H]2CN(c3cccn(C(CO)C(F)(F)F)c3=O)C(=O)[C@H]2NC(=O)c2ccc(OC(F)F)cc2)c(F)c1` (some centres unmarked) [Example 583], the EC50 in experiment [1] came to 3.8 nM; in experiment [2], 57 nM.

In the case of `COc1cc(N2C[C@@H](c3c(F)cc(OC)cc3F)[C@H](NC(=O)c3ccc(OC(F)(F)F)cc3)C2=O)nc(C(C)(C)O)c1` [Example 584], the concentration giving a half-maximal response (EC50) turned out to be 21.8 nM in experiment [1] and 660 nM in experiment [2].

`COc1cc(N2C[C@@H](c3c(F)cc(OC)cc3F)[C@H](NC(=O)c3ccc(OC(F)F)cc3)C2=O)nc(C(C)(C)O)c1` [Example 585]: the EC50 is 21.8 nM in experiment [1] and 1200 nM in experiment [2].

Take `COc1cc(CO)nc(N2C[C@@H](c3c(F)cc(OC)cc3F)[C@H](NC(=O)c3ccc(OC(F)F)cc3)C2=O)c1` [Example 586]: the half-maximal effective concentration (EC50) in experiment [1] was 9.8 nM; in experiment [2], 1300 nM.

As for `COc1cc(CO)nc(N2C[C@@H](c3c(F)cc(OC)cc3F)[C@H](NC(=O)c3ccc(OC(F)(F)F)cc3)C2=O)c1` [Example 587], the figures for the EC50 in experiment [1] and in experiment [2] were 1.1 nM and 600 nM, respectively.

For the compound `COc1cc(C)nc(N2C[C@@H](c3c(F)cc(OC)cc3F)[C@H](NC(=O)c3ccc(OC(F)F)cc3)C2=O)c1` [Example 588], the 50% effective concentration (EC50) in experiment [1] was found to be 6.9 nM; in experiment [2] it was 410 nM.

As to `COc1cc(C2CC2)nc(N2C[C@@H](c3c(F)cc(OC)cc3F)[C@H](NC(=O)c3ccc(OC(F)F)cc3)C2=O)c1` [Example 589], the EC50 in experiment [1] amounted to 130 nM; in experiment [2], 2600 nM.

As for `COc1cc(F)c([C@@H]2CN(c3nc(C4CCN(CCO)CC4)ccc3F)C(=O)[C@H]2NC(=O)c2ccc(OC(F)F)cc2)c(F)c1` [Example 590], the half-maximal effective concentration (EC50) was found to be 1.9 nM in experiment [1] and 1600 nM in experiment [2].

In the case of `COc1cc(F)c([C@@H]2CN(c3c(C)c4c(n(CCO)c3=O)CCC4)C(=O)[C@H]2NC(=O)c2ccc(OC(F)F)cc2)c(F)c1` [Example 591], the values for the concentration for a half-maximal effect (EC50) in experiment [1] and in experiment [2] were 10.5 nM and 8.5 nM, respectively.

Take `COc1cc(F)c([C@@H]2CN(c3c(C)c4c(n(CCO)c3=O)CCC4)C(=O)[C@H]2NC(=O)c2ccc(OC(F)(F)F)cc2)c(F)c1` [Example 592]: the EC50 in experiment [1] is 7.1 nM; in experiment [2], 6.2 nM.

`COc1cc(F)c([C@@H]2CN(c3c(C)c4c(n(CCO)c3=O)CCC4)C(=O)[C@H]2NC(=O)c2ccc(Cl)cc2)c(F)c1` [Example 593]: the EC50 in experiment [1] was 3.3 nM; in experiment [2] it was 40 nM.

Take `COc1ccc([C@@H]2CN(c3c(C)ccn(CCC(F)(F)F)c3=O)C(=O)[C@H]2NC(=O)c2ccc(Cl)cc2)cc1` [Example 594]: the concentration giving a half-maximal response (EC50) amounted to 2.4 nM in experiment [1] and 1.4 nM in experiment [2].

With `COc1cc(F)c([C@@H]2CN(c3c(C)ccn(CC#N)c3=O)C(=O)[C@H]2NC(=O)c2ccc(OC(F)(F)F)cc2)c(F)c1` [Example 595], the EC50 was 2.4 nM in experiment [1] and 13 nM in experiment [2].

Regarding `COc1cc(F)c([C@@H]2CN(c3cnn4c3OCCC4)C(=O)[C@H]2NC(=O)c2ccc(Cl)cc2)c(F)c1` [Example 596], the EC50 turned out to be 43.7 nM in experiment [1] and 860 nM in experiment [2].

Consider `COc1cc(F)c([C@@H]2CN(c3cnn4c3OCCC4)C(=O)[C@H]2NC(=O)c2ccc(OC(F)F)cc2)c(F)c1` [Example 597], for which the EC50 was 1.5 nM in experiment [1] and 210 nM in experiment [2].

On to `COc1cc(F)c([C@@H]2CN(c3cnn4c3OCCC4)C(=O)[C@H]2NC(=O)c2ccc(OC(F)(F)F)cc2)c(F)c1` [Example 598], for which the concentration for a half-maximal effect (EC50) in experiment [1] came out at 6.2 nM; in experiment [2] it was 590 nM.

Turning to `COc1cc(F)c([C@@H]2CN(c3cccn4c(C)nnc34)C(=O)[C@H]2NC(=O)c2ccc(OC(F)F)cc2)c(F)c1` [Example 599], the EC50 in experiment [1] came to 4.1 nM; in experiment [2] it was 40 nM.

On to `COc1cc(F)c([C@@H]2CN(c3c(C)ccn(C(F)(F)C(=O)N4CCOCC4)c3=O)C(=O)[C@H]2NC(=O)c2ccc(OC(F)F)cc2)c(F)c1` [Example 600], for which the EC50 in experiment [1] is 7.8 nM; in experiment [2] it was 170 nM.

Consider `COc1cc(F)c([C@@H]2CN(c3c(C)ccn(C4CCNC4)c3=O)C(=O)[C@H]2NC(=O)c2ccc(OC(F)F)cc2)c(F)c1` (some centres unmarked) [Example 601], for which the results for the EC50 in experiment [1] and in experiment [2] were 2 nM and 170 nM, respectively.

For the compound `COc1cc(F)c([C@@H]2CN(c3c(C)ccn(C4CCNC4)c3=O)C(=O)[C@H]2NC(=O)c2ccc(OC(F)(F)F)cc2)c(F)c1` (some centres unmarked) [Example 602], the concentration for a half-maximal effect (EC50) is 3.8 nM in experiment [1] and 88 nM in experiment [2].

Consider `COc1cc(F)c([C@@H]2CN(c3cccn4c(C)nnc34)C(=O)[C@H]2NC(=O)c2ccc(Cl)cc2)c(F)c1` [Example 603], for which the EC50 worked out at 3.9 nM in experiment [1] and 56 nM in experiment [2].

Regarding `COc1cc(F)c([C@@H]2CN(c3cccn4c(C)nnc34)C(=O)[C@H]2NC(=O)c2ccc(OC(F)(F)F)cc2)c(F)c1` [Example 604], the EC50 in experiment [1] was determined as 0.5 nM; in experiment [2], 15 nM.

`COc1cc(F)c([C@@H]2CN(c3c(C)c4c(n(CCO)c3=O)CCCC4)C(=O)[C@H]2NC(=O)c2ccc(OC(F)F)cc2)c(F)c1` [Example 605]: the values for the EC50 in experiment [1] and in experiment [2] were less than 5 nM and 1.9 nM, respectively.

With `COc1cc(F)c([C@@H]2CN(c3c(C)c4c(n(CCO)c3=O)CCCC4)C(=O)[C@H]2NC(=O)c2ccc(OC(F)(F)F)cc2)c(F)c1` [Example 606], the EC50 in experiment [1] was 20 nM; in experiment [2], 53 nM.

With `COc1cc(F)c([C@@H]2CN(c3c(C)c4c(n(CCO)c3=O)CCCC4)C(=O)[C@H]2NC(=O)c2ccc(Cl)cc2)c(F)c1` [Example 607], the concentration giving a half-maximal response (EC50) in experiment [1] turned out to be 13.3 nM; in experiment [2], 30 nM.

As to `O=C(N[C@@H]1C(=O)N(c2cccn(CC(O)C(F)(F)F)c2=O)C[C@H]1c1ccc(Cl)cc1)c1ccc(OC(F)(F)F)cc1` (some centres unmarked) [Example 608], the 50% effective concentration (EC50) was 4.1 nM in experiment [1] and 4.2 nM in experiment [2].

On to `O=C(N[C@@H]1C(=O)N(c2cccn(CC(O)C(F)(F)F)c2=O)C[C@H]1c1ccc(Cl)cc1)c1ccc(OC(F)(F)F)cc1` (some centres unmarked) [Example 609], for which the EC50 came to 1.8 nM in experiment [1] and 28 nM in experiment [2].

For the compound `COc1ccc([C@@H]2CN(c3c(C)ccn(CC4CC4)c3=O)C(=O)[C@H]2NC(=O)c2ccc(OC(F)F)cc2)cc1` [Example 610], the concentration giving a half-maximal response (EC50) worked out at 1 nM in experiment [1] and 0.3 nM in experiment [2].

Regarding `COc1cc(F)c([C@@H]2CN(c3c(C)ccn(CCC(F)(F)F)c3=O)C(=O)[C@H]2NC(=O)c2ccc(Cl)cc2)c(F)c1` [Example 611], the concentration for a half-maximal effect (EC50) was found to be 2.4 nM in experiment [1] and 5.9 nM in experiment [2].

In the case of `COc1cc(F)c([C@@H]2CN(c3c(C)ccn(C4CCNC4)c3=O)C(=O)[C@H]2NC(=O)c2ccc(OC(F)F)cc2)c(F)c1` (some centres unmarked) [Example 612], the concentration for a half-maximal effect (EC50) worked out at 13.5 nM in experiment [1] and 33 nM in experiment [2].

`COc1cc(F)c([C@@H]2CN(c3c(C)ccn(C4CCNC4)c3=O)C(=O)[C@H]2NC(=O)c2ccc(OC(F)(F)F)cc2)c(F)c1` (some centres unmarked) [Example 613]: the results for the EC50 in experiment [1] and in experiment [2] were 11.8 nM and 9.3 nM, respectively.

As for `COc1cc(F)c([C@@H]2CN(c3c(C)ccn(CC4CCO4)c3=O)C(=O)[C@H]2NC(=O)c2ccc(Cl)cc2)c(F)c1` (some centres unmarked) [Example 614], the EC50 in experiment [1] was 6 nM; in experiment [2], 33 nM.

For the origin of these results see patent US20230348426A1, “OXOPYRROLIDINE FPR2 AGONISTS” (Bristol-Myers Squibb Company, priority 2020, published 2023).
